A word on the IC50: it is the concentration that gives 50% inhibition. Higher therefore signals weaker potency in that assay.

The values below come from article PMC12452633 (RSC Medicinal Chemistry, 2025).

For one assay, the system named is Ku70/80 protein. To be noted: gel-based TSA; cited from earlier work.
A further assay deals with p53 phosphorylation. To be noted: through p53 phosphorylation, ATM pathway activation; cited from earlier work.
The next assay concerns NHEJ. To be noted: earlier report; cited from earlier work.
The target in the next assay is Ku70–Ku80 (Homo sapiens, UniProt P12956+P13010). The assay can be described thus: nano Differential Scanning Fluorometry. Type of assay: binding. To be noted: 0 to 25 μM ligand. (DSF heats the sample and reads unfolding from a dye or from intrinsic fluorescence.)
The target in the next assay is Ku70/80 (Homo sapiens, UniProt P12956+P13010). The assay can be described thus: Ku–DNA binding EMSA. To be noted: Ku70/80 (IC50), purified Ku70/80, direct DNA binding activity by EMSA. (In EMSA bound probe runs differently from free probe, usually more slowly.)
Another assay addresses DNA-PK (Homo sapiens, UniProt P12956+P13010). The assay can be described thus: DNA-PK phosphoryl-transferase catalytic. Type of assay: biochemical.

Chain of Ku70/80 (P12956 whole entry): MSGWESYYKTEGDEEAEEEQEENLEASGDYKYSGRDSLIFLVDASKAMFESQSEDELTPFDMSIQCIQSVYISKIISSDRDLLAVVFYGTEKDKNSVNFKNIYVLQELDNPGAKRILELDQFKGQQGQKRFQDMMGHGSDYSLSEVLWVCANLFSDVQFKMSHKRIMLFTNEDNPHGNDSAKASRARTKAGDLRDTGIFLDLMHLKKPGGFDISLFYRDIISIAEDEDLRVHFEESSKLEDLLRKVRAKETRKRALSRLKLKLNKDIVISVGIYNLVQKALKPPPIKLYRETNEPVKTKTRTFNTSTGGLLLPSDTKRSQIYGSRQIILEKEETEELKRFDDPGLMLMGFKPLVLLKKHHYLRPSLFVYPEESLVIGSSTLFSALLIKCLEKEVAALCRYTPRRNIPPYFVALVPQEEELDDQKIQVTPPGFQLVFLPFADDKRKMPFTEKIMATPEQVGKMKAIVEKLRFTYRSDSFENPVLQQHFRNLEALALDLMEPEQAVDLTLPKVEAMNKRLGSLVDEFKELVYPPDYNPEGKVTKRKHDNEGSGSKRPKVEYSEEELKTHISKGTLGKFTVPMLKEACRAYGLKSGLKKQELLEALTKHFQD
Chain of Ku70/80 (P13010 whole entry): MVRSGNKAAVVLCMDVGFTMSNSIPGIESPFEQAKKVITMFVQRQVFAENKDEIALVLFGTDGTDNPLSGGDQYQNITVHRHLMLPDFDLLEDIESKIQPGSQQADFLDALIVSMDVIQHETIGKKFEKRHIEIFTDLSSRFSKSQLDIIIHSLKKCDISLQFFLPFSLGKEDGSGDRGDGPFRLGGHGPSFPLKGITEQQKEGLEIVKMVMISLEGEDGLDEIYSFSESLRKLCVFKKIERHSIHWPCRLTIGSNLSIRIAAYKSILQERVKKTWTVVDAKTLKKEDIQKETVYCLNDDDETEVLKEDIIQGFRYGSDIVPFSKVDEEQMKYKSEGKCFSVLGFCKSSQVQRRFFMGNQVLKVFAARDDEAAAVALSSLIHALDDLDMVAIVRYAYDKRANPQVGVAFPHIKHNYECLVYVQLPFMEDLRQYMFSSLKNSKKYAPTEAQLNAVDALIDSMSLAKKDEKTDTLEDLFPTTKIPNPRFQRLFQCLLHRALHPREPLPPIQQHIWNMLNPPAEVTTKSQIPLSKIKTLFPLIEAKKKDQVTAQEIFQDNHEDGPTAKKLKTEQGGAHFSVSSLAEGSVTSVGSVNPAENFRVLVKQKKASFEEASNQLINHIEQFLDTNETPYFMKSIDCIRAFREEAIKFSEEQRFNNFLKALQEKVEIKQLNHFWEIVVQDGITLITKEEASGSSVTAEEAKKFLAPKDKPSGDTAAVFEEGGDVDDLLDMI
Chain of DNA-PK (P12956 whole entry): as the sequence (P12956 whole entry) above
Chain of DNA-PK (P13010 whole entry): as the sequence (P13010 whole entry) above
Chain of Ku70–Ku80 (P12956 whole entry): as the sequence (P12956 whole entry) above
Chain of Ku70–Ku80 (P13010 whole entry): as the sequence (P13010 whole entry) above

Take `COc1cccc(NC(=O)c2cc(-c3ccc(CC4C(=O)N(c5cccc(-c6nnn[nH]6)c5)N=C4C)o3)ccc2Cl)c1` (centres unmarked) [Compound 76 (245), 5-(5-((1-(3-(1H-tetrazol-5-yl)phenyl)-3-methyl-5-oxo-4,5-dihydro-1H-pyrazol-4-yl)methyl)furan-2-yl)-2-chloro-N-(3-methoxyphenyl)benzamide]: the “direct interaction with Ku70/80 protein” value in the assay on Ku70/80 protein is given as “directly interacts with the Ku70/80 protein”. In addition, the “potentiation of cellular effects of bleomycin and IR” value in the assay on p53 phosphorylation was “potentiates the cellular effects of bleomycin and IR”. In addition, the “effect in CRISPR gene-editing model” value with NHEJ is “inhibiting NHEJ and activating homologous recombination to increase the efficiency of gene insertion”.
In the case of `COc1cccc(NC(=O)c2cc(-c3ccc(CC4C(=O)N(c5cccc(C(=O)O)c5)N=C4C)o3)ccc2Cl)c1` (centres unmarked) [53 (149), 3-(4-((5-(4-chloro-3-((3-methoxyphenyl)carbamoyl)phenyl)furan-2-yl)methyl)-3-methyl-5-oxo-4,5-dihydro-1H-pyrazol-1-yl)benzoic acid], on Ku70–Ku80, the “shift in thermal stability (qualitative)” value is “concentration-dependent induction of a shift in thermal stability”.
Take `COc1cccc(NC(=O)c2cc(-c3ccc(/C=C4\C(=O)N(c5cccc(-c6nnn[nH]6)c5)N=C4C)o3)ccc2Cl)c1` [Compound 75, (Z)-5-(5-((1-(3-(1H-tetrazol-5-yl)phenyl)-3-methyl-5-oxo-1,5-dihydro-4H-pyrazol-4-ylidene)methyl)furan-2-yl)-2-chloro-N-(3-methoxyphenyl)benzamide]: the half-maximal inhibitory concentration (IC50) on Ku70/80 came out at 3.51 ± 1.81 µM; on DNA-PK, 980 ± 520 nM.
For the compound `COc1cccc(NC(=O)c2cc(-c3ccc(CC4C(=O)N(c5ccc(C(=O)O)cc5)N=C4C)o3)ccc2Cl)c1` (centres unmarked) [Compound 55, 4-(4-((5-(4-Chloro-3-((3-methoxyphenyl)carbamoyl)phenyl)furan-2-yl)methyl)-3-methyl-5-oxo-4,5-dihydro-1H-pyrazol-1-yl)benzoic acid], the IC50 at Ku70/80 came out at 7.67 ± 2.95 µM; against DNA-PK it was 808 ± 37 nM.
`CC1=NN(c2cccc(C(=O)O)c2)C(=O)/C1=C\c1ccc(-c2ccc(Cl)c(C(=O)NCc3ccccc3Cl)c2)o1` [Compound 38, (Z)-3-(4-((5-(4-Chloro-3-((2-chlorobenzyl)carbamoyl)phenyl)furan-2-yl)methylene)-3-methyl-5-oxo-4,5-dihydro-1H-pyrazol-1-yl)benzoic acid]: the IC50 at Ku70/80 stood at 3.55 ± 0.4 µM; on DNA-PK, 1740 ± 610 nM.
Consider `COc1cccc(NC(=O)c2cc(-c3ccc(CC4C(=O)N(c5cccc(C(=O)O)c5)N=C4C)s3)ccc2Cl)c1` (centres unmarked) [Compound 57, 3-(4-((5-(4-Chloro-3-((3-methoxyphenyl)carbamoyl)phenyl)thiophen-2-yl)methyl)-3-methyl-5-oxo-4,5-dihydro-1H-pyrazol-1-yl)benzoic acid], for which the IC50 at Ku70/80 was determined as 6.09 ± 0.36 µM; against DNA-PK it was 400 ± 40 nM.
As for `O=C(O)c1cccc(N2N=C(C(F)(F)F)/C(=C/c3ccc(-c4ccc(Cl)c(C(=O)NCc5ccc(F)cc5)c4)o3)C2=O)c1` [Compound 52, (Z)-3-(4-((5-(4-Chloro-3-((4-fluorobenzyl)carbamoyl)phenyl)furan-2-yl)methylene)-5-oxo-3-(trifluoromethyl)-4,5-dihydro-1H-pyrazol-1-yl)benzoic acid], the IC50 at Ku70/80 was 9.15 ± 0.68 µM; at DNA-PK it was 250 nM.
Regarding `CC1=NN(c2ccc(C(=O)O)cc2)C(=O)/C1=C\c1ccc(-c2ccc(Cl)c(C(=O)NCc3cccnc3)c2)o1` [Compound 49, (Z)-4-(4-((5-(4-Chloro-3-((pyridin-3-ylmethyl)carbamoyl)phenyl)furan-2-yl)methylene)-3-methyl-5-oxo-4,5-dihydro-1H-pyrazol-1-yl)benzoic acid], the values for the half-inhibitory concentration (IC50) on Ku70/80 and against DNA-PK were greater than 25 µM and 2500 nM, respectively.
The corresponding values for `COc1cccc(NC(=O)c2cc(-c3ccc(/C=C4\C(=O)N(c5ccc(C(=O)O)cc5)N=C4C)s3)ccc2Cl)c1` [Compound 41, (Z)-4-(4-((5-(4-Chloro-3-((3-methoxyphenyl)carbamoyl)phenyl)thiophen-2-yl)methylene)-3-methyl-5-oxo-4,5-dihydro-1H-pyrazol-1-yl)benzoic acid] are 9.04 ± 0.36 µM and 530 ± 70 nM.
On to `CC1=NN(c2cccc(C(=O)O)c2)C(=O)/C1=C\c1ccc(-c2ccc(Cl)c(C(=O)NCc3ccccc3)c2)o1` [Compound 37, (Z)-3-(4-((5-(3-(Benzylcarbamoyl)-4-chlorophenyl)furan-2-yl)methylene)-3-methyl-5-oxo-4,5-dihydro-1H-pyrazol-1-yl)benzoic acid], for which the IC50 amounted to 8.22 ± 0.45 µM on Ku70/80 and 830 ± 90 nM against DNA-PK.
Take `CC1=NN(c2cccc(C(=O)O)c2)C(=O)/C1=C\c1ccc(-c2ccc(Cl)c(C(=O)NCC3CC3)c2)s1` [Compound 42, (Z)-3-(4-((5-(4-Chloro-3-((cyclopropylmethyl)carbamoyl)phenyl)thiophen-2-yl)methylene)-3-methyl-5-oxo-4,5-dihydro-1H-pyrazol-1-yl)benzoic acid]: the IC50 is 11.1 ± 0.76 µM at Ku70/80 and 3040 ± 700 nM on DNA-PK.
As to `COc1cccc(NC(=O)c2cc(-c3ccc(/C=C4\C(=O)N(c5cccc(C(=O)O)c5)N=C4C)s3)ccc2Cl)c1` [Compound 40, (Z)-3-(4-((5-(4-Chloro-3-((3-methoxyphenyl)carbamoyl)phenyl)thiophen-2-yl)methylene)-3-methyl-5-oxo-4,5-dihydro-1H-pyrazol-1-yl)benzoic acid], the IC50 at Ku70/80 came out at 7.18 ± 2.24 µM; against DNA-PK, 1720 ± 180 nM.
With `CC1=NN(c2cccc(C(=O)O)c2)C(=O)C1Cc1ccc(-c2ccc(Cl)c(C(=O)NCc3ccc(F)cc3)c2)s1` (centres unmarked) [Compound 60, 3-(4-((5-(4-Chloro-3-((4-fluorobenzyl)carbamoyl)phenyl)thiophen-2-yl)methyl)-3-methyl-5-oxo-4,5-dihydro-1H-pyrazol-1-yl)benzoic acid], the values for the IC50 on Ku70/80 and at DNA-PK were 4.1 ± 0.3 µM and 2660 ± 1740 nM, respectively.
